Test results reported in patent publication US20080095720A1, “Skin Benefit Compositions with a Vanilloid Receptor Antagonist” (CONOPCO, INC., D/B/A UNILEVER, priority 2006, published 2008).

Molecular target: T1, vanilloid receptor TRP-V1, VR-1 (Homo sapiens, UniProt Q8NER1)
T1 construct: endogenous in cells; host or cells: HaCaT keratinocytes
Experiment: Interleukin-1α production in HaCaT keratinocytes treated with capsaicin with or without capsazepine
Assay type: cell-based
Procedure: Keratinocyte cell lines (HaCaT) were treated with about 1 μM capsaicin (an agonist of vanilloid receptor TRP-V1, VR-1). […] Antagonists of TRP-V1 are thereby expected to be a route to reduce inflammation in the skin when the same is subjected to an irritant.

T1 sequence (Q8NER1 whole entry): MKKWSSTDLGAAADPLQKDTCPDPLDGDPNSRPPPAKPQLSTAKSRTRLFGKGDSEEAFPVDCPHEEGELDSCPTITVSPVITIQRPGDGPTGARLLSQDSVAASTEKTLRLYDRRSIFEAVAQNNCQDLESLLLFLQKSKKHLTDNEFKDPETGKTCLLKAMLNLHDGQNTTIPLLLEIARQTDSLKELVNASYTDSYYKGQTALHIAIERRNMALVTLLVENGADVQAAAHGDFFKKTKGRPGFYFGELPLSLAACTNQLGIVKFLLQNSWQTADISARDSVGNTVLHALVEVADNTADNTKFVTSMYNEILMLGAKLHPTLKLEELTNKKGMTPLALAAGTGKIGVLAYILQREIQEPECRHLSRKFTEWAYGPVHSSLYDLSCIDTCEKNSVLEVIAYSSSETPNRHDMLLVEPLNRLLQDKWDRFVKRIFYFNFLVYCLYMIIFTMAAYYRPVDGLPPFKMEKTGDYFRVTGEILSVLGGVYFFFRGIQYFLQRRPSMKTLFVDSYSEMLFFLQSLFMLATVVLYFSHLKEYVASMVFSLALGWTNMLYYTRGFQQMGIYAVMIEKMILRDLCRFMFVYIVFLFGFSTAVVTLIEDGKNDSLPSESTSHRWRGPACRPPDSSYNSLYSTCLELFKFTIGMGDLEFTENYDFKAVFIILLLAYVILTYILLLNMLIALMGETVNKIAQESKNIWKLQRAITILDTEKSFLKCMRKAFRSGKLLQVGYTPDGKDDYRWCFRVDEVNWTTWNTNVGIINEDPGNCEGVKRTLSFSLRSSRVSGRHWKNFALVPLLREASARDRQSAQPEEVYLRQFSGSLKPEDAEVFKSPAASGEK

## COc1cc(CNC(=O)CCCC/C=C/C(C)C)ccc1O [capsaicin]
HaCaT keratinocyte cell lines, about 1 μM capsaicin, p<0.001
  production of interleukin-1α: significant increase

## Oc1cc2c(cc1O)CN(C(=S)NCCc1ccc(Cl)cc1)CCC2 [capsazepine]
HaCaT keratinocytes, capsaicin (1 μM) in the presence of about 3 μM capsazepine
  interleukin-1α increase in response to capsaicin: blocked the interleukin-1α increase
HaCaT keratinocytes, capsazepine alone
  interleukin-1α levels: no effect
